{"source": "patent US9765035B2", "about": "(priority 2013, dated 2017)", "key": {"[1]": {"tested_on": "RKO cells, mono-methyl arginine", "assay": "RKO Methylation Assay (In Cell Western for mono-methyl arginine)", "format": "cell-based", "settings": "Homo sapiens, 72 hours", "source_text": "RKO adherent cells were purchased from ATCC (American Type Culture Collection), Manassas, Va., USA. DMEM/Glutamax medium, penicillin-streptomycin, heat inactivated fetal bovine serum, 0.05% trypsin and D-PBS were purchased from Life Technologies, Grand Island, N.Y., USA. Odyssey blocking buffer, 800CW goat anti-rabbit IgG (H+L) antibody, and Licor Odyssey infrared scanner were purchased from Licor Biosciences, Lincoln, Nebr., USA. Mono-methyl arginine antibody was purchased from Cell Signaling Technology, Danvers, Mass., USA. Methanol was purchased from VWR, Franklin, Mass., USA. 10% Tween 20 was purchased from KPL, Inc., Gaithersburg, Md., USA. DRAQ5 was purchased from Biostatus Limited, Leicestershire, UK.\nRKO adherent cells were maintained in growth medium (DMEM/Glutamax medium supplemented with 10% v/v heat inactivated fetal bovine serum and 100 units/mL penicillin-streptomycin) and cultured at 37° C. under 5% CO2.\nCell Treatment, in Cell Western (ICW) for Detection of Mono-Methyl Arginine and DNA Content. […] Compound (100 nL) from a 96-well source plate was added directly to 384 well cell plate. Plates were incubated at 37° C., 5% CO2 for 72 hours. After three days of incubation, plates were brought to room temperature outside of the incubator for ten minutes and blotted on paper towels to remove cell media. 50 μL of ice cold 100% methanol was added directly to each well and incubated for 30 min at room temperature. After 30 min, plates were transferred to a Biotek EL406 plate washer and washed 2 times with 100 μL per well of wash buffer (1×PBS). Next 60 μL per well of Odyssey blocking buffer (Odyssey Buffer with 0.1% Tween 20 (v/v)) were added to each plate and incubated 1 hour at room temperature. Blocking buffer was removed and 20 μL per well of primary antibody was added (mono-methyl arginine diluted 1:200 in Odyssey buffer with 0.1% Tween 20 (v/v)) and plates were incubated overnight (16 hours) at 4° C. Plates were washed 5 times with 100 μL per well of wash buffer. […] The plates were washed 5 times with 100 μL per well wash buffer then 2 times with 100 μL per well of water. Plates were allowed to dry at room temperature then imaged on the Licor Odyssey machine which measures integrated intensity at 700 nm and 800 nm wavelengths. Both 700 and 800 channels were scanned.\nCalculations: First, the ratio for each well was determined by:\nEach plate included fourteen control wells of DMSO only treatment (minimum activation) as well as fourteen control wells for maximum activation treated with 20 μM of a reference compound. The average of the ratio values for each control type was calculated and used to determine the percent activation for each test well in the plate. Reference compound was serially diluted three-fold in DMSO for a total of nine test concentrations, beginning at 20 μM. Percent activation was determined and EC30 curves were generated using triplicate wells per concentration of compound."}, "[2]": {"biological_target": "human PRMT6 (Homo sapiens, UniProt Q96LA8)", "sequence (Q96LA8 with tags, fused parts or gaps)": "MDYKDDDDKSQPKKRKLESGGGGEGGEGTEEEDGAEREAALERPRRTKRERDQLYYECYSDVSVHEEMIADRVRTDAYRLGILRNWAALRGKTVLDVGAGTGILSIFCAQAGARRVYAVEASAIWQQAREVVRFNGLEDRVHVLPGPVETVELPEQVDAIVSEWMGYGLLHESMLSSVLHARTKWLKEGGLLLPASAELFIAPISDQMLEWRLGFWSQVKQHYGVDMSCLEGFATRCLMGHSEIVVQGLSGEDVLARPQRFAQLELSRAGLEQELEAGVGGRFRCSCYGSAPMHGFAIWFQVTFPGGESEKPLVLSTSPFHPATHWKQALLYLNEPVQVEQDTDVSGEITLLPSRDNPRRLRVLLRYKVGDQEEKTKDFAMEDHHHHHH", "assay": "biochemical", "source_text": "General Materials. S-adenosylmethionine (SAM), S-adenosylhomocysteine (SAH), bicine, Tween20, dimethylsulfoxide (DMSO), bovine skin gelatin (BSG), sodium butyrate and Tris(2-carboxyethyl)phosphine hydrochloride solution (TCEP) were purchased from Sigma-Aldrich at the highest level of purity possible. ^3H-SAM was purchase from American Radiolabeled Chemicals with a specific activity of 80 Ci/mmol. 384-well streptavidin Flashplates were purchased from PerkinElmer.\nSubstrates. Peptide representative of human histone H4 residues 36-50 was synthesized with an N-terminal linker-affinity tag motif and a C-terminal amide cap by 21st Century Biochemicals. The peptide was purified by high-performance liquid chromatography (HPLC) to greater than 95% purity and confirmed by liquid chromatography mass spectrometry (LC-MS). The sequence was Biot-Ahx-[…]-amide and contained a monomethylated lysine at position 44 (SEQ ID NO.:5).\nMolecular Biology: Full-length human PRMT6 (NM_018137.2) transcript clone was amplified from an HEK 293 cDNA library, incorporating a flanking 5′ sequence encoding a FLAG tag ([…]) (SEQ ID NO.:6) fused directly to Ser 2 of PRMT6 and a 3′ sequence encoding a hexa His sequence (HHHHHH) (SEQ ID NO.: 17) fused directly to Asp 375. The amplified gene was subcloned into pFastBacMam (Viva Biotech).\nProtein Expression. Recombinant baculovirus were generated according to Bac-to-Bac kit instructions (Life Technologies). […] Infections were carried out at 37° C. for 48 hours, harvested by centrifugation, and stored at −80° C. for purification.\nProtein Purification. […] Column was washed with 20 mM imidazole in the same buffer and Flag-PRMT6-His was eluted with 150 mM imidazole. Pooled fractions were dialysed against buffer Ni-A and further purified by anti-flag M2 affinity chromatography. Flag-PRMT6-His was eluted with 200 ug/ml FLAG peptide in the same buffer. Pooled fractions were dialysed in 20 mM Tris, 150 mM NaCl, 10% glycerol and 5 mM β-mercaptoethanol, pH 7.8. The purity of recovered protein was 95%.\nGeneral Procedure for PRMT6 Enzyme Assays on Peptide Substrates. The assays were all performed in a buffer consisting of 20 mM Bicine (pH=7.6), 1 mM TCEP, 0.005% BSG, and 0.002% Tween 20, prepared on the day of use. Compounds in 100% DMSO (1 ul) were spotted into a polypropylene 384-well V-bottom plates (Greiner) using a Platemate Plus outfitted with a 384-channel head (Thermo Scientific). DMSO (1 ul) was added to Columns 11, 12, 23, 24, rows A-H for the maximum signal control and 1 ul of SAH, a known product and inhibitor of PRMT6, was added to columns 11, 12, 23, 24, rows I-P for the minimum signal control. A cocktail (40 ul) containing the PRMT6 enzyme was added by Multidrop Combi (Thermo-Fisher). The compounds were allowed to incubate with PRMT6 for 30 min at room temperature, then a cocktail (10 ul) containing SAM and peptide was added to initiate the reaction (final volume=51 ul). The final concentrations of the components were as follows: PRMT6 was 1 nM, ^3H-SAM was 200 nM, non-radiolabeled SAM was 250 nM, peptide was 75 nM, SAH in the minimum signal control wells was 1 mM, and the DMSO concentration was 2%. The assays were stopped by the addition of non-radiolabeled SAM (10 ul) to a final concentration of 400 uM, which dilutes the ^3H-SAM to a level where its incorporation into the peptide substrate is no longer detectable. 50 ul of the reaction in the 384-well polypropylene plate was then transferred to a 384-well Flashplate and the biotinylated peptides were allowed to bind to the streptavidin surface for at least 1 hour before being washed once with 0.1% Tween20 in a Biotek EL×405 plate washer. The plates were then read in a PerkinElmer TopCount plate reader to measure the quantity of ^3H-labeled peptide bound to the Flashplate surface, measured as disintegrations per minute (dpm) or alternatively, referred to as counts per minute (cpm). […]"}}, "note": "pIC50: −log10 of the molar value. Where two headings read alike, the source gives them in different places."}
{"smiles": "CNCCN(C)Cc1n[nH]c2ccc(OC(C)C(C)C)cc12", "note": "(stereo not shown) [Compound 4]", "values": [{"measurement": "EC30", "setting": "[1]; In Cell Western EC30, RKO cells, single experiment or average of multiple experiments, read-out: RGG ICW", "result": 1.68, "unit": "µM"}, {"measurement": "EC30", "setting": "[1]; In Cell Western, RKO cells, read-out: RGG ICW EC30", "result": "< 3", "unit": "µM"}, {"measurement": "pIC50", "setting": "[2]; biochemical evaluation, peptide substrate, read-out: PRMT6 IC50", "result": "> 7.00"}, {"measurement": "pIC50", "setting": "[2]; single experiment or average of multiple experiments, read-out: PRMT6 biochemical evaluation (numerical)", "result": 7.44}]}
